Converted amounts (≈) assume the structure as drawn. Like-named read-outs stand apart in the source and are kept apart here.
Columns and labels:
M. marinum = test: microbe, parasite or virus in culture; assay type: cell-based; conditions: Mycobacterium marinum
M. intracellulare = test: microbe, parasite or virus in culture; assay type: cell-based; conditions: Mycobacterium intracellulare
M. gordonae = test: microbe, parasite or virus in culture; assay type: cell-based; conditions: Mycobacterium gordonae
M. gilvum = test: microbe, parasite or virus in culture; assay type: cell-based, Mycobacterium gilvum; conditions: Mycolicibacterium gilvum
[1] = test system: clinically isolated MDR, XDR, and TDR M. tuberculosis strains; test: microbe, parasite or virus in culture; assay type: cell-based; conditions: Mycobacterium tuberculosis
M. smegmatis = test: microbe, parasite or virus in culture; assay type: cell-based, Mycobacterium smegmatis; conditions: Mycolicibacterium smegmatis
M. kyorinense = test: microbe, parasite or virus in culture; assay type: cell-based; conditions: Mycobacterium kyorinense
M. bolletii = test: microbe, parasite or virus in culture; assay type: cell-based, Mycobacterium bolletii; conditions: Mycobacteroides abscessus
M. avium = test: microbe, parasite or virus in culture; assay type: cell-based; conditions: Mycobacterium avium
M. kansasii = test: microbe, parasite or virus in culture; assay type: cell-based; conditions: Mycobacterium kansasii
M. chitae = test: microbe, parasite or virus in culture; assay type: cell-based, Mycobacterium chitae; conditions: Mycolicibacterium chitae
M. colombiense = test: microbe, parasite or virus in culture; assay type: cell-based; conditions: Mycobacterium colombiense
M. peregrinum = test: microbe, parasite or virus in culture; assay type: cell-based, Mycobacterium peregrinum; conditions: Mycolicibacterium peregrinum
M. xenopi = test: microbe, parasite or virus in culture; assay type: cell-based; conditions: Mycobacterium xenopi
M. marseiliense = test: microbe, parasite or virus in culture; assay type: cell-based; conditions: Mycobacterium
M. fortuitum = test: microbe, parasite or virus in culture; assay type: cell-based, Mycobacterium fortuitum; conditions: Mycolicibacterium fortuitum
M. massiliense = test: microbe, parasite or virus in culture; assay type: cell-based, Mycobacterium massiliense; conditions: Mycobacteroides abscessus
M. heraklionease = test: microbe, parasite or virus in culture; assay type: cell-based; conditions: Mycobacterium
M. goodie = test: microbe, parasite or virus in culture; assay type: cell-based; conditions: Mycobacterium
M. abscessus = test: microbe, parasite or virus in culture; assay type: cell-based, Mycobacterium abscessus; conditions: Mycobacteroides abscessus
Proteus mirabilis = test: Broth dilution MIC (CLSI); assay type: cell-based; conditions: read-out: MIC
Excerpt: (§1) Bacteria (Acinetobacter baumannii NCCP 14782, Citrobacter freundii NCCP 14766, Enterobacter aerogenes NCCP 14761, Escherichia coli NCCP 14762, Escherichia coli O157 NCCP 14541, Klebsiella pneumoniae NCCP 14764, Proteus mirabilis NCCP 14763, Proteus vulgaris NCCP 14765, Pseudomonas aeruginosa NCCP 14781, Salmonella Enteritidis NCCP 14771, Salmonella Paratyphi A NCCP 14759, Salmonella Typhimurium NCCP 16207, Serratia marcescens NCCP 14770, Shigella boydii NCCP 14745, Shigella dysenteriae NCCP 14746, Shigella flexneri NCCP 14744, Shigella sonnei NCCP 14773, Bacillus subtilis NCCP 11101, Corynebacterium diphtheriae NCCP 10353, Staphylococcus aureus MSSA NCCP 14780, Staphylococcus aureus MRSA NCCP 14769, Staphylococcus epidermidis NCCP 14768, Streptococcus pneumoniae NCCP 14774) and fungi (Aspergillus fumigatus NCCP 22454, Candida albicans NCCP 32557, Cryptococcus neoformans NCCP 32559, Microsporum canis NCCP 22454, Rhizopus oryzae NCCP 22458, Saccharomyces cerevisiae NCCP 32558, Trichophyton rubrum NCCP 22456) strains were obtained from the National Culture Collection for Pathogens (NCCP) (Chungbuk, Korea). The MIC of each agent was determined following the Clinical and Laboratory Standards Institute (CLSI).[40]

[2] = test system: Staphylococcus aureus, MSSA; test: Broth dilution MIC (CLSI); assay type: cell-based; conditions: read-out: MIC
Excerpt: as §1

Escherichia coli = test: Broth dilution MIC (CLSI); assay type: cell-based; conditions: read-out: MIC
Excerpt: as §1

Shigella boydii = test: Broth dilution MIC (CLSI); assay type: cell-based; conditions: read-out: MIC
Excerpt: as §1

[3] = test system: Corynebacterium diphtheriae; test: Broth dilution MIC (CLSI); assay type: cell-based; conditions: read-out: MIC
Excerpt: as §1

[4] = test system: Staphylococcus epidermidis; test: Broth dilution MIC (CLSI); assay type: cell-based; conditions: read-out: MIC
Excerpt: as §1

Salmonella Enteritidis = test: Broth dilution MIC (CLSI); assay type: cell-based; conditions: Salmonella enterica; Salmonella Enteritidis; read-out: MIC
Excerpt: as §1

Candida albicans = test: Broth dilution MIC (CLSI); assay type: cell-based; conditions: read-out: MIC
Excerpt: as §1

Trichophyton rubrum = test: Broth dilution MIC (CLSI); assay type: cell-based; conditions: read-out: MIC
Excerpt: as §1

Aspergillus fumigatus = test: Broth dilution MIC (CLSI); assay type: cell-based; conditions: read-out: MIC
Excerpt: as §1

Microsporum canis = test: Broth dilution MIC (CLSI); assay type: cell-based; conditions: read-out: MIC
Excerpt: as §1

Serratia marcescens = test: Broth dilution MIC (CLSI); assay type: cell-based; conditions: read-out: MIC
Excerpt: as §1

Rhizopus oryzae = test: Broth dilution MIC (CLSI); assay type: cell-based; conditions: Rhizopus arrhizus; Rhizopus oryzae; read-out: MIC
Excerpt: as §1

Bacillus subtilis = test: Broth dilution MIC (CLSI); assay type: cell-based; conditions: read-out: MIC
Excerpt: as §1

Salmonella Typhimurium = test: Broth dilution MIC (CLSI); assay type: cell-based; conditions: Salmonella enterica; Salmonella Typhimurium; read-out: MIC
Excerpt: as §1

Shigella flexneri = test: Broth dilution MIC (CLSI); assay type: cell-based; conditions: read-out: MIC
Excerpt: as §1

Proteus vulgaris = test: Broth dilution MIC (CLSI); assay type: cell-based; conditions: read-out: MIC
Excerpt: as §1

Klebsiella pneumoniae = test: Broth dilution MIC (CLSI); assay type: cell-based; conditions: read-out: MIC
Excerpt: as §1

M. aubagnense = test: microbe, parasite or virus in culture; assay type: cell-based, Mycobacterium aubagnense; conditions: Mycolicibacterium aubagnense
M. szulgai = test: microbe, parasite or virus in culture; assay type: cell-based; conditions: Mycobacterium szulgai
M. arupense = test: microbe, parasite or virus in culture; assay type: cell-based, Mycobacterium arupense; conditions: Mycolicibacter arupensis
M. tuberculosis H37Rv = test: microbe, parasite or virus in culture; assay type: cell-based, Mycobacterium tuberculosis
M. conceptionense = test: microbe, parasite or virus in culture; assay type: cell-based, Mycobacterium conceptionense; conditions: Mycolicibacterium senegalense
[5] = Mycobacterium tuberculosis, H37RV, read-out: MIC

CCCCOc1ccc2cc(CN3C(=O)CC[C@H]3C(=O)OC)c3cc(OC)c(OC)cc3c2c1 [PP2S, Methyl (S)-1-((3-butoxy-6,7-dimethoxyphenanthren-9-yl)methyl)-5-oxopyrrolidine-2-carboxylate] gave an MIC (M. marinum) greater than 100 µg/mL, an MIC (M. intracellulare) greater than 100 µg/mL and an MIC (M. gordonae) greater than 100 µg/mL. The MIC (M. gilvum) was greater than 100 µg/mL, the MIC ([1]; TDR-1) was 1.6 µg/mL (≈ 3.44 µM) and the MIC ([1]; TDR-2) was 0.2 µg/mL (≈ 0.43 µM). For the same compound, the MIC ([1]; TDR-3) was 1.6 µg/mL (≈ 3.44 µM), the MIC (M. smegmatis) was greater than 100 µg/mL and the MIC (M. kyorinense) was greater than 100 µg/mL. The MIC (M. bolletii) was greater than 100 µg/mL, the MIC (M. avium) was greater than 100 µg/mL and the MIC (M. kansasii) was greater than 100 µg/mL. It also gave an MIC (M. chitae) greater than 100 µg/mL, an MIC (M. colombiense) greater than 100 µg/mL and an MIC (M. peregrinum) greater than 100 µg/mL. For the same compound, the MIC (M. xenopi) was greater than 100 µg/mL, the MIC (M. marseiliense) was greater than 100 µg/mL and the MIC (M. fortuitum) was greater than 100 µg/mL. It also gave an MIC (M. massiliense) greater than 100 µg/mL, an MIC (M. heraklionease) greater than 100 µg/mL and an MIC (M. goodie) greater than 100 µg/mL. For the same compound, the MIC (M. abscessus) was greater than 100 µg/mL, the MIC (Proteus mirabilis) was greater than 100 µg/mL and the MIC [2] was greater than 100 µg/mL. For the same compound, the MIC (Escherichia coli) was greater than 100 µg/mL, the MIC (Shigella boydii) was greater than 100 µg/mL and the MIC [3] was greater than 100 µg/mL. It also gave an MIC [4] greater than 100 µg/mL, an MIC (Salmonella Enteritidis) greater than 100 µg/mL and an MIC (Candida albicans) greater than 100 µg/mL. The MIC (Trichophyton rubrum) was greater than 100 µg/mL, the MIC (Aspergillus fumigatus) was greater than 100 µg/mL and the MIC (Microsporum canis) was greater than 100 µg/mL. It also gave an MIC (Serratia marcescens) greater than 100 µg/mL, an MIC (Rhizopus oryzae) greater than 100 µg/mL and an MIC (Bacillus subtilis) greater than 100 µg/mL. The MIC (Salmonella Typhimurium) was greater than 100 µg/mL, the MIC (Shigella flexneri) was greater than 100 µg/mL and the MIC (Proteus vulgaris) was greater than 100 µg/mL. For the same compound, the MIC (Klebsiella pneumoniae) was greater than 100 µg/mL, the MIC (M. aubagnense) was greater than 100 µg/mL and the MIC (M. szulgai) was greater than 100 µg/mL. The MIC (M. arupense) was greater than 100 µg/mL, the MIC (M. tuberculosis H37Rv) was 0.4 µg/mL (≈ 0.859 µM) and the “in vitro antitubercular activities (S-form vs R-form)” value (M. tuberculosis H37Rv) was “had in vitro antitubercular activities”. For the same compound, the MIC (M. tuberculosis H37Rv; [5]) was 0.8 µg/mL (≈ 1.72 µM) and the MIC (M. conceptionense) was greater than 100 µg/mL.
COC(=O)[C@@H]1CCC(=O)N1Cc1cc2ccc(OCc3ccccc3)cc2c2cc(OC)c(OC)cc12 [PP3S, Methyl (S)-1-{[3-(Benzyloxy)-6,7-dimethoxy-9-phenanthryl]methyl}-5-oxopyrrolidine-2-carboxylate] gave an MIC (M. marinum) greater than 100 µg/mL, an MIC (M. intracellulare) greater than 100 µg/mL and an MIC (M. gordonae) greater than 100 µg/mL. It also gave an MIC (M. gilvum) greater than 100 µg/mL, an MIC ([1]; TDR-1) of 0.8 µg/mL (≈ 1.6 µM) and an MIC ([1]; TDR-2) of 1.6 µg/mL (≈ 3.2 µM). The MIC ([1]; TDR-3) was 0.8 µg/mL (≈ 1.6 µM), the MIC (M. smegmatis) was greater than 100 µg/mL and the MIC (M. kyorinense) was greater than 100 µg/mL. For the same compound, the MIC (M. bolletii) was greater than 100 µg/mL, the MIC (M. avium) was greater than 100 µg/mL and the MIC (M. kansasii) was greater than 100 µg/mL. For the same compound, the MIC (M. chitae) was greater than 100 µg/mL, the MIC (M. colombiense) was greater than 100 µg/mL and the MIC (M. peregrinum) was greater than 100 µg/mL. The MIC (M. xenopi) was greater than 100 µg/mL, the MIC (M. marseiliense) was greater than 100 µg/mL and the MIC (M. fortuitum) was greater than 100 µg/mL. It also gave an MIC (M. massiliense) greater than 100 µg/mL, an MIC (M. heraklionease) greater than 100 µg/mL and an MIC (M. goodie) greater than 100 µg/mL. For the same compound, the MIC (M. abscessus) was greater than 100 µg/mL, the MIC (Proteus mirabilis) was greater than 100 µg/mL and the MIC [2] was greater than 100 µg/mL. For the same compound, the MIC (Escherichia coli) was greater than 100 µg/mL, the MIC (Shigella boydii) was greater than 100 µg/mL and the MIC [3] was greater than 100 µg/mL. It also gave an MIC [4] greater than 100 µg/mL, an MIC (Salmonella Enteritidis) greater than 100 µg/mL and an MIC (Candida albicans) greater than 100 µg/mL. The MIC (Trichophyton rubrum) was greater than 100 µg/mL, the MIC (Aspergillus fumigatus) was greater than 100 µg/mL and the MIC (Microsporum canis) was greater than 100 µg/mL. For the same compound, the MIC (Serratia marcescens) was greater than 100 µg/mL, the MIC (Rhizopus oryzae) was greater than 100 µg/mL and the MIC (Bacillus subtilis) was greater than 100 µg/mL. The MIC (Salmonella Typhimurium) was greater than 100 µg/mL, the MIC (Shigella flexneri) was greater than 100 µg/mL and the MIC (Proteus vulgaris) was greater than 100 µg/mL. It also gave an MIC (Klebsiella pneumoniae) greater than 100 µg/mL, an MIC (M. aubagnense) greater than 100 µg/mL and an MIC (M. szulgai) greater than 100 µg/mL. For the same compound, the MIC (M. arupense) was greater than 100 µg/mL, the “in vitro antitubercular activities (S-form vs R-form)” value (M. tuberculosis H37Rv) was “had in vitro antitubercular activities” and the MIC (M. tuberculosis H37Rv; [5]) was 1.6 µg/mL (≈ 3.2 µM). The MIC (M. conceptionense) was greater than 100 µg/mL.

Source: publication PMC9154192 (PLoS Biology, 2022)
